Measurements from patent US20160050959A1, “TABLET COMPRISING FRUCTOSE” (NATURALIA INGREDIENTS S.R.L., priority 2013, published 2016).

What was measured:
[1] = Colour change of tablets after direct compression; format: physicochemical; conditions: 98% fructose + 2% leucine
Method: The tablets were prepared by direct compression, after 15 min. mixing of the ingredients, using a Korsch XL 400 compression machine with force of 12 kN and rotation speed of 20,000 tablets/h.

[2] = Compressibility (compression force versus tablet hardness); format: physicochemical; conditions: 98% fructose + 2% leucine, direct compression 12 kN
Method: Compressibility: the compressibility was evaluated by measuring the compression force of the compression machine used and the hardness of the tablet. With the same hardness, the formulation that requires less compression force is more compressible.

[3] = studies on mice followed by clinical trials on humans; cited from earlier work
[4] = at 20° C.; cited from earlier work
[5] = Friability, evaluation by the operator; format: physicochemical; conditions: 98% fructose + 2% leucine
Method: Friability: friability is measured with the friabilimeter and relative method described in Pharmacopoeia Europea (note: in our specific case, an evaluation by the operator was performed, not a measurement).

[6] = Tablet stability tests / stability to humidity; format: physicochemical; conditions: tablets of 98% fructose + 2% leucine, grape versus commercial fructose
[7] = Cracking off, operator observation; format: physicochemical; conditions: 98% fructose + 2% leucine; operator evaluation
Method: Cracking off: the cracking off was evaluated directly by the machine operator by observing the tablets both during mould ejection and during the friability test. The tablets must never crack into two mirror-image parts with crack horizontal to the edge, or have visible cracks on the same edge.

[8] = listed as crystalline grape fructose

For `O=C(CO)[C@@H](O)[C@H](O)[C@H](O)CO` [commercial fructose, fructose], which “colour change of tablet” value [1] is on record?
Its value is “tendency to form yellow patches”.

And the Compressibility [2]?
The Compressibility was “very poor”.

Which insulin secretion [3] does the source give for `O=C(CO)[C@@H](O)[C@H](O)[C@H](O)CO` [fructose extracted from fruit, fructose] here?
Its insulin secretion is “very low”.

Which solubility in water [4] does the source give for `O=C(CO)[C@@H](O)[C@H](O)[C@H](O)CO` [fructose] here?
The solubility in water was “approx. 80%”.

Which “colour change of tablet” value [1] does the source give for `O=C(CO)[C@@H](O)[C@H](O)[C@H](O)CO` [grape fructose, fructose] here?
Its value is “did not change colour”.

What about the “colour change of tablet” value [1, 8] of the same molecule?
Its value is “does not change colour”.

What about the Compressibility [2] of the same molecule?
The Compressibility was “compressed better”.

What about the Compressibility [2, 8] of the same molecule?
Its Compressibility is “compresses well”.

What about the Friability [5] of the same molecule?
Its Friability is “is not friable”.

And the stability [6]?
Its stability is “more stable”.

And the stability [6, 8]?
Its stability is “more resistant to the stability tests”.

What about the Cracking off [7] of the same molecule?
Its Cracking off is “does not tend to cracking off”.
